{
  "source": "patent US20260284003A1",
  "about": "“COMPOSITIONS AND METHOD FOR MANAGEMENT OF PAIN AND ALLERGY” (priority 2023, published 2026)",
  "key": {"[1]": {"test_system": "tumor necrosis factor-α (TNF-α)", "test": "TNF-α in spinal fluids, cisplatin induced peripheral neuropathy (ELISA)", "conditions": "cisplatin mice, oral 21 days, FIG. 5", "description": "(§2) As an illustrative example to evaluate the effect of the composition on reducing pain, in-vivo experiments were carried out in Cisplatin induced peripheral neuropathy animal models.\n(§3) In the present study, these were estimated in the spinal fluids of the animals using ELISA kits as per the manufacturer's instruction (R&D Systems, Minneapolis, Minnesota, USA)."}, "Interleukin-1β (IL-1β)": {"test_system": "Interleukin-1β (IL-1β)", "test": "IL-1β in spinal fluids, cisplatin induced peripheral neuropathy (ELISA)", "conditions": "cisplatin mice, oral 21 days, FIG. 6", "description": "as §2, §3"}, "TRPV1": {"test_system": "TRPV1", "test": "TRPV1 expression in spinal tissue lysate (Western blotting)", "type": "in vivo, C57BL/6 mice", "conditions": "normalized to GAPDH, cisplatin = 1, control 0.3, BCP 10 mg, PEA 5 mg, BPE 10 mg, BPB 15 mg, Ibuprofen 30 mg, oral 21 days", "method": "(§1) In the current study, TRPV1 and COX-2 expression was assessed in the spinal tissue lysate of the animals, using Western blotting. Briefly, proteins from the spinal tissue were separated in a 10% SDS-PAGE and transferred to PVDF membrane. The TRPV1 and COX-2 expressions were probed using specific monoclonal antibodies (ABclonal, Dusseldorf, Germany). GAPDH was used as housekeeping gene control. The expression of TRPV1 and COX-2 were normalized to that of GAPDH, and fold change was calculated w.r.t cisplatin group."}, "[2]": {"test_system": "Cisplatin induced peripheral neuropathy animal models", "test": "Hot plate test, cisplatin induced peripheral neuropathy", "type": "in vivo, C57BL/6 mice", "conditions": "reaction latency, 52° C.; BCP 10 mg, PEA 5 mg, BPE 10 mg, BPB 15 mg, Ibuprofen 30 mg", "method": "Animals are placed on the hot plate one at a time. Latency to respond to the heat stimulus is measured by the amount of time it takes for the animal to lick one of its paws. Animals were placed on a hot-plate apparatus. In order to measure thermal pain, the temperature of the hot plate surface was set to 52° C. The reaction latency as well as the time between when the animals were placed and the onset of paw-licking or jumping behaviors were measured in seconds(s). To minimize tissue damage, a cut-off time of 40 s was adopted (Moureq et al. Alleviation of cisplatin-induced neuropathic pain, neuronal apoptosis, and systemic inflammation in mice by rapamycin., Frontiers in Aging Neuroscience., 14, 2022)."}, "[3]": {"test_system": "Ovalbumin Induced Respiratory Allergy", "test": "Bronchoalveolar lavage fluid (BALF) cell count, ovalbumin induced respiratory allergy", "conditions": "BCP 10, PEA 3, BPE 10, BPB 30 mg/kg; for Differential Count, PMN - E / Differential Count, PMN - N / Differential Count, Lymphocytes / Differential Count, Macrophages: BALF; for Differential Count, PMN - E: eosinophil, control 0.50, OVA 1.67; for Differential Count, PMN - N: neutrophil, control 1.00, OVA 5.33; for Differential Count, Lymphocytes: control 1.83, OVA 12.00; for Differential Count, Macrophages: control 3.33, OVA 25.17; for Cellular Count (total cell count of BALF): control 6.93, OVA 44.17", "description": "BALB/c mice (20-30 g body weight) were housed under standard laboratory conditions (temperature 23.5° C., humidity=58-64%), with 12 h light and 12 h dark cycle, fed with normal diet and water ad libitum.\n(§4) Control animals were administered with 2% Gum acacia in PBS. All the animals except in Group I were actively sensitized by an intraperitoneal (i.p.) injection of OVA (20 μg/kg body weight) and Aluminum hydroxide (2 mg/kg body weight) in PBS on 0 and 14th day and were challenged with 1% OVA in PBS on 21st, 22nd, and 23rd using Nebulizer for 1 hour. The treatment drugs and standard drug were administered orally for 5 days (18th to 23rd day).\nOn day 25, 48 h after final OVA challenge (saline challenge for normal control group), the animals were anesthetized for collection of blood and Bronchoalveolar Lavage (BAL) fluid for biochemical evaluation.\nOn the day of sacrifice mice were anesthetized, the lungs were gently lavaged three times via the tracheal tube with a volume of 0.7 ml phosphate buffered saline (PBS). BALF was immediately centrifuged at 1500 rpm for 5 min, and the collected supernatant was stored at −70° C. until further analysis. The cell pellet was analysed to determine the total cell count of BALF (Table 9, FIG. 14) and the count of Macrophages, neutrophil, eosinophil, and lymphocyte (Table 10, FIG. 15) counts using a hematology analyzer in BALF fluids."}, "[4]": {"test_system": "Ovalbumin Induced Respiratory Allergy", "test": "Organ weight determination, ovalbumin induced respiratory allergy", "type": "in vivo, BALB/c mice", "conditions": "for organ weight (in words): compared OVA control, FIG. 10, Table 5; for Organ weight, Spleen / Organ weight, Lungs: mean, BCP 10 mg/kg, PEA 3 mg/kg, BPE 10 mg/kg, BPB 30 mg/kg oral 5 days; for Organ weight, Spleen: control 0.26, OVA 0.80; for Organ weight, Lungs: control 0.65, OVA 1.08", "from_the_text": "It is widely known that lungs and spleen weight increase during allergy."}, "COX-2": {"test_system": "COX-2", "test": "COX-2 expression in spinal tissue lysate (Western blotting)", "type": "in vivo, C57BL/6 mice", "conditions": "normalized to GAPDH, cisplatin = 1, control 0.7, BCP 10 mg, PEA 5 mg, BPE 10 mg, BPB 15 mg, Ibuprofen 30 mg, oral 21 days", "method": "as §1"}, "Mouse mast cells P815": {"test_system": "Mouse mast cells P815", "test": "Inhibition of histamine release from C48/80 activated mast cells", "type": "cell-based", "conditions": "P815, 80 μg/ml C48/80, 30 min; FIG. 4A-4D", "method": "Reaction was terminated by placing the cells on ice for 10 mins and centrifuged for 5 minutes at 2400 rpm. 100 μL of cell supernatant was mixed with 50 μL of 4N NaOH and 10 μL of O-Phthaldialdehyde (OPT, 1 mg·mL-1 in methanol, Sigma). By incubation at room temperature for 10 min, 50 μL of 1N HCl was added to stop the reaction. The fluorescence was measured at Ex/Em of 390/460 nm using a microplate reader (FLOUSTAR)."}, "inducible nitric oxide": {"test_system": "inducible nitric oxide", "test": "Inhibition of inducible nitric oxide (Griess reaction)", "conditions": "macrophages, nitrite in cell supernatant; FIG. 2A-2C", "description": "(§5) Mouse macrophage cell line (RAW264.7) was purchased from National Center for Cell Science (NCCS, Pune, India) and maintained as a monolayer culture in Dulbecco's modified minimal essential medium (DMEM, Life Technologies, CA, USA) supplemented with 10% (v/v) fetal bovine serum (FBS; GIBCO/Invitrogen, Carlsbad, CA) at 37° C. in a humidified 5% CO2 incubator.\nThe Nitrite estimation was carried out using the Griess reaction. To the 50 μL of cell supernatant, Griess reagent I (50 μL) and Griess reagent II (50 μL) were added and incubated for 10 min at room temperature and absorbance were read at 540 nm using Microplate reader."}, "IL-6": {"test_system": "IL-6", "test": "Inhibition of IL-6 in LPS induced RAW 264.7 macrophages (ELISA)", "conditions": "RAW 264.7, LPS 100 ng/mL; FIG. 3A-3D", "description": "as §5\nRAW 264.7 (5×10^5 cells/well) macrophage cells were induced with LPS (100 ng/mL) along with or without different concentrations of Samples. The supernatants were used for IL6 estimation using ELISA kits as per the manufacturer's instruction (R&D Systems, Minneapolis, Minnesota, USA)."}, "[5]": {"test_system": "Ovalbumin Induced Respiratory Allergy", "test": "Evaluation of nasal symptoms, ovalbumin induced respiratory allergy", "conditions": "BCP 10, PEA 3, BPE 10, BPB 30 mg/kg; for Nasal Redness Score: score 0—normal, 1—faint, 2—medium, 3—dark", "description": "BALB/c mice (20-30 g body weight) were housed under standard laboratory conditions (temperature 23.5° C., humidity=58-64%), with 12 h light and 12 h dark cycle, fed with normal diet and water ad libitum. […] The number of animals used in each group is 6.\nas §4\nOn day 21, 22 and 23 nasal symptoms were evaluated within a 10-minute period after the OVA challenge. […] Sneezing is characterized by an explosive expiration just after a deep inspiration and nose rubbing is characterized by an external perinasal scratch with either one or both forelimbs of animal. Another parameter that was evaluated was redness of the nose (FIG. 13) was by observing the intensity in redness of nostrils and scoring them as the following: 0—normal, 1—faint, 2—medium, and 3—dark."}, "[6]": {"test_system": "Cisplatin induced peripheral neuropathy animal models", "test": "Tail-flick test, cisplatin induced peripheral neuropathy", "type": "in vivo, C57BL/6 mice", "conditions": "tail withdrawal latency; BCP 10 mg, PEA 5 mg, BPE 10 mg, BPB 15 mg, Ibuprofen 30 mg", "method": "This is a test of acute nociception in which a high-intensity thermal stimulus is directed to the tail of a mouse or a rat. The time from onset of stimulation to a rapid flick/withdrawal of the tail from heat source is recorded. Thermal (radiant heat) sensation of animal tail part was assessed by observation of tail flick response as per D'Aemour and Smith method with minor modifications (Hargreaves et al. A new and sensitive method for measuring thermal nociception in cutaneous hyperalgesia. Pain 32 (1988) 77-88). The one-centimeter distance from the tail terminal region was located on the slit of the plantar device. Thermal sensitivity of mice tail was recorded as tail withdrawal latency. Brisk withdrawal of tail from the plantar device was considered as a progression of neuropathic pain. Cut-off stimuli, i.e., 15 s was maintained to avoid potential tissue damage. Mice were tested after 24 h of treatment injections for the drug-response evaluation."}, "[7]": {"test_system": "Human epidermal keratinocyte cells (HaCaT)", "test": "Inhibition of intracellular calcium (H2O2 stimulated, Fluo-8AM)", "type": "cell-based", "conditions": "samples pre-treated 2 hours, 10 mM H2O2 30 mins, FIG. 1A-1D, combination ratio 1:1:0.3", "method": "Various environmental stimuli or neurotransmitters often cause changes in intracellular calcium concentration in the skin. Keratinocytes, primary cell type found in the outermost layer of the skin. Epidermal keratinocytes express functional sensory receptors, such as TRPV1, TRPV3, and TRPV4. Pain stimulus increases intracellular calcium through TRPV channels. Hydrogen peroxide mediated calcium stimulation was tested. Human epidermal keratinocyte cells (HaCaT) (5×10^4) were seeded in 96 black well plate for overnight. Samples were Pre-treated for 2 hours in 1% DMEM. Cells were stimulated with 10 mM H2O2 for 30 mins, and Fluo-8AM dye was added (HBBS buffer) for 1 hr. After incubation, cells were washed with PBS twice and the fluorescence was measured at the Ex/Em of 485/520 nm."}, "[8]": {"conditions": "day 21, 10-minute period after OVA challenge, OVA 6.00"}, "[9]": {"conditions": "day 21, 10-minute period after OVA challenge, OVA 88.67"}, "[10]": {"conditions": "day 22, 10-minute period after OVA challenge, OVA 5.50"}, "[11]": {"conditions": "day 22, 10-minute period after OVA challenge, OVA 82.17"}, "[12]": {"conditions": "day 23, 10-minute period after OVA challenge, OVA 4.00"}, "[13]": {"conditions": "day 23, 10-minute period after OVA challenge, OVA 83.17"}},
  "data": [
    {"smiles": "C=C1CC/C=C(\\C)CC[C@@H]2[C@@H]1CC2(C)C", "note": "[BCP, β-Caryophyllene]", "values": [
      {"measurement": "inhibition of tumor necrosis factor-α (TNF-α)", "setting": "[1]", "result": "showed inhibition"},
      {"measurement": "inhibition of Interleukin-1β (IL-1β)", "setting": "Interleukin-1β (IL-1β)", "result": "showed inhibition"},
      {"measurement": "TRPV1 expression (fold change w.r.t cisplatin group)", "setting": "TRPV1", "result": 0.1},
      {"measurement": "Hot plate test Mean Diff., Cisplatin vs. treatment (Tukey's multiple comparisons test)", "setting": "[2]", "result": "−12.13"},
      {"measurement": "Differential Count, PMN - E", "setting": "[3]", "result": 1.50},
      {"measurement": "Differential Count, PMN - N", "setting": "[3]", "result": 1.50},
      {"measurement": "Differential Count, Lymphocytes", "setting": "[3]", "result": 4.17},
      {"measurement": "Differential Count, Macrophages", "setting": "[3]", "result": 11.00},
      {"measurement": "Cellular Count (total cell count of BALF)", "setting": "[3]", "result": 18.17},
      {"measurement": "organ weight (in words)", "setting": "[4]", "result": "showed decrease in organ weight"},
      {"measurement": "Organ weight, Spleen", "setting": "[4]", "result": 0.51},
      {"measurement": "Organ weight, Lungs", "setting": "[4]", "result": 0.76},
      {"measurement": "Cox 2 expression (fold change w.r.t cisplatin group)", "setting": "COX-2", "result": 0.8},
      {"measurement": "inhibition of histamine release from mast cells", "setting": "Mouse mast cells P815", "result": "dose dependent inhibition of histamine release from mast cells"},
      {"measurement": "inhibition of nitric oxide levels", "setting": "inducible nitric oxide", "result": "showed inhibition of nitric oxide levels"},
      {"measurement": "inhibition of IL6 induced by LPS", "setting": "IL-6", "result": "lower activity"},
      {"measurement": "Number of Sneezing", "setting": "[5]; [8]", "result": 3.33},
      {"measurement": "Nose rubbing", "setting": "[5]; [9]", "result": 52.83},
      {"measurement": "Number of Sneezing", "setting": "[5]; [10]", "result": 2.67},
      {"measurement": "Nose rubbing", "setting": "[5]; [11]", "result": 51.33},
      {"measurement": "Nasal Redness Score", "setting": "[5]; day 22, OVA 2.17", "result": 0.67},
      {"measurement": "Number of Sneezing", "setting": "[5]; [12]", "result": 1.50},
      {"measurement": "Nose rubbing", "setting": "[5]; [13]", "result": 52.83},
      {"measurement": "Nasal Redness Score", "setting": "[5]; day 23, OVA 1.17", "result": 0.17},
      {"measurement": "Tail Flick test Mean Diff., Cisplatin vs. treatment (Tukey's multiple comparisons test)", "setting": "[6]", "result": "−3.125"},
      {"measurement": "inhibition of intracellular calcium levels", "setting": "[7]", "result": "showed inhibition of intracellular calcium levels"}
    ]},
    {"smiles": "CCCCCCCCCCCCCCCC(=O)NCCO", "note": "[PEA, Palmitoylethanolamide]", "values": [
      {"measurement": "TRPV1 expression (fold change w.r.t cisplatin group)", "setting": "TRPV1", "result": 2.8},
      {"measurement": "Hot plate test Mean Diff., Cisplatin vs. treatment (Tukey's multiple comparisons test)", "setting": "[2]", "result": "−5.958"},
      {"measurement": "Differential Count, PMN - E", "setting": "[3]", "result": 1.20},
      {"measurement": "Differential Count, PMN - N", "setting": "[3]", "result": 1.80},
      {"measurement": "Differential Count, Lymphocytes", "setting": "[3]", "result": 2.80},
      {"measurement": "Differential Count, Macrophages", "setting": "[3]", "result": 5.00},
      {"measurement": "Cellular Count (total cell count of BALF)", "setting": "[3]", "result": 10.80},
      {"measurement": "organ weight (in words)", "setting": "[4]", "result": "showed decrease in organ weight"},
      {"measurement": "Organ weight, Spleen", "setting": "[4]", "result": 0.50},
      {"measurement": "Organ weight, Lungs", "setting": "[4]", "result": 0.83},
      {"measurement": "Cox 2 expression (fold change w.r.t cisplatin group)", "setting": "COX-2", "result": 0.3},
      {"measurement": "inhibition of histamine release from mast cells", "setting": "Mouse mast cells P815", "result": "lower activity"},
      {"measurement": "inhibition of IL6 induced by LPS", "setting": "IL-6", "result": "dose dependent inhibition of IL6 induced by LPS"},
      {"measurement": "Number of Sneezing", "setting": "[5]; [8]", "result": 2.60},
      {"measurement": "Nose rubbing", "setting": "[5]; [9]", "result": 66.40},
      {"measurement": "Number of Sneezing", "setting": "[5]; [10]", "result": 2.80},
      {"measurement": "Nose rubbing", "setting": "[5]; [11]", "result": 58.40},
      {"measurement": "Nasal Redness Score", "setting": "[5]; day 22, OVA 2.17", "result": 1.00},
      {"measurement": "Number of Sneezing", "setting": "[5]; [12]", "result": 3.00},
      {"measurement": "Nose rubbing", "setting": "[5]; [13]", "result": 66.40},
      {"measurement": "Nasal Redness Score", "setting": "[5]; day 23, OVA 1.17", "result": 0.80},
      {"measurement": "Tail Flick test Mean Diff., Cisplatin vs. treatment (Tukey's multiple comparisons test)", "setting": "[6]", "result": "−4.167"},
      {"measurement": "inhibition of intracellular calcium levels", "setting": "[7]", "result": "showed inhibition of intracellular calcium levels"}
    ]}
  ]
}
